Positions of bridges follow the written chain, without caps; N, C: chain ends. Non-standard residues stand in square brackets, D forms with d. Residues, ends and D or L forms follow the SMILES beside them. 1Nal = N[C@@H](Cc1cccc2ccccc12)C(=O)O
How the values were obtained:
Test in all cases: cell-based
[1] = target: hNav1.3 (Homo sapiens, UniProt Q9NY46); conditions: IonWorks Quattro, use-dependent block, hNav1.3; read-out: IWQ Use Nav1.3
[2] = target: hNav1.7 (Homo sapiens, UniProt Q15858); format: cell-based; conditions: IonWorks Quattro, use-dependent block, hNav1.7; read-out: IWQ Use Nav1.7
Sequence of hNav1.7 (Q15858 whole entry, looked up): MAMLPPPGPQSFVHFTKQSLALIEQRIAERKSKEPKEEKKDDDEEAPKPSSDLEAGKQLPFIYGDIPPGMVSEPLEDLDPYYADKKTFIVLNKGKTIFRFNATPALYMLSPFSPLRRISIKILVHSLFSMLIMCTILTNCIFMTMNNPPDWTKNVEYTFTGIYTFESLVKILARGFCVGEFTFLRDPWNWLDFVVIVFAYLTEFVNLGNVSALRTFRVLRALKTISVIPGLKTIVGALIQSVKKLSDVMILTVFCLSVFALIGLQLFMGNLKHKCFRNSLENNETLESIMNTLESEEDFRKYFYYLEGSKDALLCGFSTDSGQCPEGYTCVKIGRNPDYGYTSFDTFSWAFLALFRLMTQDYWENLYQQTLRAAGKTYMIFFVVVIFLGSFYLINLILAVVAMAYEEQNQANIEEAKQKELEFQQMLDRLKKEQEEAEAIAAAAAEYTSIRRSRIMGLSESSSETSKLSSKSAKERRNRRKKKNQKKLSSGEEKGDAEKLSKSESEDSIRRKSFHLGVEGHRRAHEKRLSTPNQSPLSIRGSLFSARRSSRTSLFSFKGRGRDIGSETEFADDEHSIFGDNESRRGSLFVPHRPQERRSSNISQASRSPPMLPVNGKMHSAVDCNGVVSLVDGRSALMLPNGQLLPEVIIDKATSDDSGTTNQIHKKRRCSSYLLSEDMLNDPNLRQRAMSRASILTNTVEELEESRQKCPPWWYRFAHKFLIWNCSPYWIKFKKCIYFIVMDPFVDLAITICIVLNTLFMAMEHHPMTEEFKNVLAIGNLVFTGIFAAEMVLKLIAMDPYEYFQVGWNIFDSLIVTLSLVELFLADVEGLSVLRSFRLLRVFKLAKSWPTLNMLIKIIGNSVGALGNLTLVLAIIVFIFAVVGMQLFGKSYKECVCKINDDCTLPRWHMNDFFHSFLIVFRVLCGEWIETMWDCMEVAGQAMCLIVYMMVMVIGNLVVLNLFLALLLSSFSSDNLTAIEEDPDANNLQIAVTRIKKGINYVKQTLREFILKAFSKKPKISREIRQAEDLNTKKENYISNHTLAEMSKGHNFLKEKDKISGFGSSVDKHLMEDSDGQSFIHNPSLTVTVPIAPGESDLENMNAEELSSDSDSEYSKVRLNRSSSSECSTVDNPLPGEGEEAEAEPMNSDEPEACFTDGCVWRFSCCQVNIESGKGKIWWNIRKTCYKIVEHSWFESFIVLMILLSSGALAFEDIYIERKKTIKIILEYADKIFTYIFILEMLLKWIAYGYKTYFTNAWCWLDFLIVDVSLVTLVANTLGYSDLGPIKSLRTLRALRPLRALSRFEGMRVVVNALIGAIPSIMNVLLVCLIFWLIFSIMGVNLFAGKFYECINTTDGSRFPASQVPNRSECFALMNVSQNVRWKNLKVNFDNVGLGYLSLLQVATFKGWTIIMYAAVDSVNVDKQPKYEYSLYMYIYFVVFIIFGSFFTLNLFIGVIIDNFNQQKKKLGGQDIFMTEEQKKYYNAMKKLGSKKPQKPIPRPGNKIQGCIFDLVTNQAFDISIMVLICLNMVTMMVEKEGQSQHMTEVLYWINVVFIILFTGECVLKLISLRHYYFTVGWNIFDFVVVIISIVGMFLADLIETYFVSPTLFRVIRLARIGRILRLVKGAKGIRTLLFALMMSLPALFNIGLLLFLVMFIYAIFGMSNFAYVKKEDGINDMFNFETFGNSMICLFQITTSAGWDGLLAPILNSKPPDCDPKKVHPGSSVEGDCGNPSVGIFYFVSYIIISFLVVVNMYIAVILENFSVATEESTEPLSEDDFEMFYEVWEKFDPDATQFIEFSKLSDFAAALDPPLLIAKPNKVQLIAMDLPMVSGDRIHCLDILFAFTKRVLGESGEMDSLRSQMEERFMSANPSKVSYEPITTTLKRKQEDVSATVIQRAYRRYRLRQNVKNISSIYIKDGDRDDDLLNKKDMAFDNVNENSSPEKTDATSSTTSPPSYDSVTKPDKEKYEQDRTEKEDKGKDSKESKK

[3] = target: hNav1.5 (Homo sapiens, UniProt Q14524); conditions: IonWorks Quattro, use-dependent block, hNav1.5; read-out: IWQ Use Nav1.5
Sequence of hNav1.5 (Q14524 whole entry, looked up): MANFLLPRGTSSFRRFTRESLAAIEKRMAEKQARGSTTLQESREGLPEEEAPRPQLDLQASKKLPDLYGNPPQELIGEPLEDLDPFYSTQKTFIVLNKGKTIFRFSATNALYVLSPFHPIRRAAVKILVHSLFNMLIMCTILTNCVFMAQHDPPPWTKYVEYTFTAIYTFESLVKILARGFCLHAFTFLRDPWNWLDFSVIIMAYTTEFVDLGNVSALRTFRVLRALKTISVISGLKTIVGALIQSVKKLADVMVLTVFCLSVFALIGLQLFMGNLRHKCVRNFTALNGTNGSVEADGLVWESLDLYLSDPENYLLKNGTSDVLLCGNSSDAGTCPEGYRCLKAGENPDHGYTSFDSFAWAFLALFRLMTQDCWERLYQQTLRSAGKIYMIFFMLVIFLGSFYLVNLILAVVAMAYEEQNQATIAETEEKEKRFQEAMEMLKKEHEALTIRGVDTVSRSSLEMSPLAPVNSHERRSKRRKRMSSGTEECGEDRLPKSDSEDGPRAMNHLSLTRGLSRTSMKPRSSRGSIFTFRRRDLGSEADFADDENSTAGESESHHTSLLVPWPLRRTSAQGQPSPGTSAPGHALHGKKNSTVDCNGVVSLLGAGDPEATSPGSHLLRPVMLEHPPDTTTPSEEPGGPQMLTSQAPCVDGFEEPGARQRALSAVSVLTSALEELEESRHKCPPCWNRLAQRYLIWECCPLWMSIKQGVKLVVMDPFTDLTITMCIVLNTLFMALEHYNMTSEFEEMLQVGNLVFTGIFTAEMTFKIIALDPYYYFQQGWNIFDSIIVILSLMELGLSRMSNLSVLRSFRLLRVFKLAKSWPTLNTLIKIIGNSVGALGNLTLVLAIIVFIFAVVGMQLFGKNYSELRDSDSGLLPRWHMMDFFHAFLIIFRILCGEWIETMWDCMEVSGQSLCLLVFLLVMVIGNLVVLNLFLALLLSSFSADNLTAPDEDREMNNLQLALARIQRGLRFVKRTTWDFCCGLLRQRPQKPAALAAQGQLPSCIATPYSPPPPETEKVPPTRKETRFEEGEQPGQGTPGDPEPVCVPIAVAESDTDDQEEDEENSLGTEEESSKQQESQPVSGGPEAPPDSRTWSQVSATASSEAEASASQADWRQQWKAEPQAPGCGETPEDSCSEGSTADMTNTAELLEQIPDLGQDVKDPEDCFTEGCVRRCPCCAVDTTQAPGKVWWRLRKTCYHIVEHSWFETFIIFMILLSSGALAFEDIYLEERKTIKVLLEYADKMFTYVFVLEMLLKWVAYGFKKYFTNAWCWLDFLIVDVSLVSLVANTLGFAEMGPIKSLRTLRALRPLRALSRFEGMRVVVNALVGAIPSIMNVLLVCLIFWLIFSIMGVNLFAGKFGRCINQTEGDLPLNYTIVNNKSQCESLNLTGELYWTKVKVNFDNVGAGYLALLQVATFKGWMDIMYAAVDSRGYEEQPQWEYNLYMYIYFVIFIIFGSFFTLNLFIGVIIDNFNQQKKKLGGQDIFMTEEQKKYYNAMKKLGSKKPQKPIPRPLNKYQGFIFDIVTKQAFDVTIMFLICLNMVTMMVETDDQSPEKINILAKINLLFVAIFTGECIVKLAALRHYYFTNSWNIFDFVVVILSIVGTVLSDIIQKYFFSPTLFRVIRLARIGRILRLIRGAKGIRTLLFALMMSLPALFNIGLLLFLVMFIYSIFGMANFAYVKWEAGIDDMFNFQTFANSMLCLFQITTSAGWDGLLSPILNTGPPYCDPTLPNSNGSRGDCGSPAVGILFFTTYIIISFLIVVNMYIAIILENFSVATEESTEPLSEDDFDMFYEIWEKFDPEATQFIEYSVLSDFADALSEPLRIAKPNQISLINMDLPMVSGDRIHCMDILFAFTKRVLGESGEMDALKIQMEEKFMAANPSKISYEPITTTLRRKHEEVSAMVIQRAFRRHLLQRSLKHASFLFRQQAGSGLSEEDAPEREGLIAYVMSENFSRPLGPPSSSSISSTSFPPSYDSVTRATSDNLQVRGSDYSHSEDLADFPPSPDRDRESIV

Row | Structure (SMILES) | IC50 [1] | IC50 [2] | IC50 [3]
1 | CC[C@H](C)[C@@H]1NC(=O)[C@@H]2CSSC[C@@H]3NC(=O)[C@H](C(C)C)NC(=O)[C@H](CC(C)C)NC(=O)[C@H](CC(N)=O)NC(=O)[C@@H]4CCCN4C(=O)[C@H](CCCNC(=N)N)NC(=O)[C@H](CSSC[C@H](NC(=O)[C@@H](N)CC(=O)O)C(=O)N[C@@H](CC(C)C)C(=O)NCC(=O)N[C@@H](C)C(=O)N[C@@H](CCSC)C(=O)N[C@@H](CCCNC(=N)N)C(=O)N[C@@H](CCCCN)C(=O)N2)NC(=O)[C@H](CSSC[C@@H](C(=O)N[C@@H](CCCCN)C(=O)N[C@@H](Cc2ccc(O)cc2)C(=O)N[C@@H](CCC(=O)O)C(=O)N[C@@H](Cc2ccccc2)C(N)=O)NC(=O)[C@H](Cc2c[nH]c4ccccc24)NC(=O)[C@H](CCCCN)NC(=O)[C@H](Cc2c[nH]cn2)NC(=O)[C@H]([C@@H](C)O)NC(=O)[C@H](CCCNC(=N)N)NC(=O)[C@H](CO)NC3=O)NC(=O)[C@H](CCCCN)NC(=O)[C@H](CC(=O)O)NC(=O)[C@H](CC(N)=O)NC(=O)[C@H](CC(=O)O)NC(=O)[C@@H]2CCCN2C1=O [compound 419] (H-DCLGAMRKCIPDNDKCCRPNLVCSRTHKWCKYEF-NH2; disulfide 2-17, 9-23, 16-30) | 3580 nM | 4000 nM | 9040 nM
2 | CC[C@H](C)[C@@H]1NC(=O)[C@@H]2CSSC[C@@H]3NC(=O)[C@H](C(C)C)NC(=O)[C@H](CC(C)C)NC(=O)[C@H](CC(N)=O)NC(=O)[C@@H]4CCCN4C(=O)[C@H](CCCNC(=N)N)NC(=O)[C@H](CSSC[C@H](NC(=O)[C@@H](N)CC(=O)O)C(=O)N[C@@H](CC(C)C)C(=O)NCC(=O)N[C@@H](C)C(=O)N[C@@H](CCSC)C(=O)N[C@@H](CCCNC(=N)N)C(=O)N[C@@H](CCCCN)C(=O)N2)NC(=O)[C@H](CSSC[C@@H](C(=O)N[C@@H](CCCCN)C(=O)N[C@@H](Cc2ccc(O)cc2)C(=O)N[C@@H](Cc2cccc4ccccc24)C(=O)N[C@@H](Cc2ccccc2)C(N)=O)NC(=O)[C@H](Cc2c[nH]c4ccccc24)NC(=O)[C@H](CCCNC(=N)N)NC(=O)[C@H](Cc2c[nH]cn2)NC(=O)[C@H]([C@@H](C)O)NC(=O)[C@H](CCCNC(=N)N)NC(=O)[C@H](CO)NC3=O)NC(=O)[C@H](CCCCN)NC(=O)[C@H](CC(=O)O)NC(=O)[C@H](CC(N)=O)NC(=O)[C@H](CC(=O)O)NC(=O)[C@@H]2CCCN2C1=O [compound 420] (H-DCLGAMRKCIPDNDKCCRPNLVCSRTHRWCKY[1Nal]F-NH2; disulfide 2-17, 9-23, 16-30) | 320 nM | 200 nM | 7500 nM
3 | CC[C@H](C)[C@@H]1NC(=O)[C@@H]2CSSC[C@@H]3NC(=O)[C@H](C(C)C)NC(=O)[C@H](CC(C)C)NC(=O)[C@H](Cc4c[nH]c5ccccc45)NC(=O)[C@@H]4CCCN4C(=O)[C@H](CCCNC(=N)N)NC(=O)[C@H](CSSC[C@H](NC(=O)[C@@H](N)CC(=O)O)C(=O)N[C@@H](CC(C)C)C(=O)NCC(=O)N[C@@H](C)C(=O)N[C@@H](CCSC)C(=O)N[C@@H](CCCNC(=N)N)C(=O)N[C@@H](CCCCN)C(=O)N2)NC(=O)[C@H](CSSC[C@@H](C(=O)N[C@@H](CCCCN)C(=O)N[C@@H](Cc2ccc(O)cc2)C(=O)N[C@H](C(=O)N[C@@H](Cc2ccccc2)C(N)=O)C(C)C)NC(=O)[C@H](Cc2c[nH]c4ccccc24)NC(=O)[C@H](CCCCN)NC(=O)[C@H](Cc2c[nH]cn2)NC(=O)[C@H]([C@@H](C)O)NC(=O)[C@H](CCCNC(=N)N)NC(=O)[C@H](CO)NC3=O)NC(=O)[C@H](CCCCN)NC(=O)[C@H](CC(=O)O)NC(=O)[C@H](CC(N)=O)NC(=O)[C@H](CC(=O)O)NC(=O)[C@@H]2CCCN2C1=O [compound 422] (H-DCLGAMRKCIPDNDKCCRPWLVCSRTHKWCKYVF-NH2; disulfide 2-17, 9-23, 16-30) | 390 nM | 280 nM | > 5000 nM
4 | CC[C@H](C)[C@@H]1NC(=O)[C@@H]2CSSC[C@@H]3NC(=O)[C@H](C(C)C)NC(=O)[C@H](CC(C)C)NC(=O)[C@H](CC(N)=O)NC(=O)[C@@H]4CCCN4C(=O)[C@H](CCCNC(=N)N)NC(=O)[C@H](CSSC[C@H](NC(=O)[C@@H](N)CC(=O)O)C(=O)N[C@@H](CC(C)C)C(=O)NCC(=O)N[C@@H](C)C(=O)N[C@@H](CCSC)C(=O)N[C@@H](CCCNC(=N)N)C(=O)N[C@@H](CCCCN)C(=O)N2)NC(=O)[C@H](CSSC[C@@H](C(=O)N[C@@H](CCCCN)C(=O)N[C@@H](Cc2ccc(O)cc2)C(=O)N[C@H](C(=O)N[C@@H](Cc2ccccc2)C(N)=O)C(C)C)NC(=O)[C@H](Cc2c[nH]c4ccccc24)NC(=O)[C@H](CCCCN)NC(=O)[C@H](Cc2c[nH]cn2)NC(=O)[C@H]([C@@H](C)O)NC(=O)[C@H](CCCNC(=N)N)NC(=O)[C@H](CO)NC3=O)NC(=O)[C@H](CCCCN)NC(=O)[C@H](CC(=O)O)NC(=O)[C@H](CC(N)=O)NC(=O)[C@H](Cc2c[nH]c3ccccc23)NC(=O)[C@@H]2CCCN2C1=O [compound 423] (H-DCLGAMRKCIPWNDKCCRPNLVCSRTHKWCKYVF-NH2; disulfide 2-17, 9-23, 16-30) | 1090 nM | 430 nM | > 5000 nM
5 | CC[C@H](C)[C@@H]1NC(=O)[C@@H]2CSSC[C@@H]3NC(=O)[C@H](C(C)C)NC(=O)[C@H](CC(C)C)NC(=O)[C@H](CC(N)=O)NC(=O)[C@@H]4CCCN4C(=O)[C@H](CCCNC(=N)N)NC(=O)[C@H](CSSC[C@H](NC(=O)[C@@H](N)CC(=O)O)C(=O)N[C@@H](CC(C)C)C(=O)N[C@@H](Cc4c[nH]c5ccccc45)C(=O)N[C@@H](C)C(=O)N[C@@H](CCSC)C(=O)N[C@@H](CCCNC(=N)N)C(=O)N[C@@H](CCCCN)C(=O)N2)NC(=O)[C@H](CSSC[C@@H](C(=O)N[C@@H](CCCCN)C(=O)N[C@@H](Cc2ccc(O)cc2)C(=O)N[C@H](C(=O)N[C@@H](Cc2ccccc2)C(N)=O)C(C)C)NC(=O)[C@H](Cc2c[nH]c4ccccc24)NC(=O)[C@H](CCCCN)NC(=O)[C@H](Cc2c[nH]cn2)NC(=O)[C@H]([C@@H](C)O)NC(=O)[C@H](CCCNC(=N)N)NC(=O)[C@H](CO)NC3=O)NC(=O)[C@H](CCCCN)NC(=O)[C@H](CC(=O)O)NC(=O)[C@H](CC(N)=O)NC(=O)[C@H](CC(=O)O)NC(=O)[C@@H]2CCCN2C1=O [compound 424] (H-DCLWAMRKCIPDNDKCCRPNLVCSRTHKWCKYVF-NH2; disulfide 2-17, 9-23, 16-30) | 1170 nM | 490 nM | > 5000 nM
6 | CC[C@H](C)[C@@H]1NC(=O)[C@@H]2CSSC[C@@H]3NC(=O)[C@H](C(C)C)NC(=O)[C@H](CC(C)C)NC(=O)[C@H](CC(N)=O)NC(=O)[C@@H]4CCCN4C(=O)[C@H](CCCNC(=N)N)NC(=O)[C@H](CSSC[C@H](NC(=O)[C@@H](N)CC(=O)O)C(=O)N[C@@H](CC(C)C)C(=O)NCC(=O)N[C@@H](C)C(=O)N[C@@H](CCSC)C(=O)N[C@@H](CCCNC(=N)N)C(=O)N[C@@H](CCCCN)C(=O)N2)NC(=O)[C@H](CSSC[C@@H](C(=O)N[C@@H](CCCCN)C(=O)N[C@@H](Cc2ccc(O)cc2)C(=O)N[C@@H](C)C(=O)N[C@@H](Cc2ccccc2)C(N)=O)NC(=O)[C@H](Cc2c[nH]c4ccccc24)NC(=O)[C@H](CCCCN)NC(=O)[C@H](Cc2c[nH]cn2)NC(=O)[C@H]([C@@H](C)O)NC(=O)[C@H](CCCNC(=N)N)NC(=O)[C@H](CO)NC3=O)NC(=O)[C@H](CCCCN)NC(=O)[C@H](CC(=O)O)NC(=O)[C@H](CC(N)=O)NC(=O)[C@H](CC(=O)O)NC(=O)[C@@H]2CCCN2C1=O [compound 426] (H-DCLGAMRKCIPDNDKCCRPNLVCSRTHKWCKYAF-NH2; disulfide 2-17, 9-23, 16-30) | 1580 nM | 580 nM | > 5000 nM
7 | CC[C@H](C)[C@@H]1NC(=O)[C@@H]2CSSC[C@@H]3NC(=O)[C@H](C(C)C)NC(=O)[C@H](CC(C)C)NC(=O)[C@H](CC(N)=O)NC(=O)[C@@H]4CCCN4C(=O)[C@H](CCCNC(=N)N)NC(=O)[C@H](CSSC[C@H](NC(=O)[C@@H](N)CC(=O)O)C(=O)N[C@@H](CC(C)C)C(=O)NCC(=O)N[C@@H](C)C(=O)N[C@@H](CCSC)C(=O)N[C@@H](CCCNC(=N)N)C(=O)N[C@@H](CCCCN)C(=O)N2)NC(=O)[C@H](CSSC[C@@H](C(=O)N[C@@H](CCCCN)C(=O)N[C@@H](Cc2ccc(O)cc2)C(=O)N[C@H](C(=O)N[C@@H](Cc2ccccc2)C(N)=O)C(C)C)NC(=O)[C@H](Cc2c[nH]c4ccccc24)NC(=O)[C@H](CCCCN)NC(=O)[C@H](Cc2c[nH]cn2)NC(=O)[C@H]([C@@H](C)O)NC(=O)[C@H](CCCNC(=N)N)NC(=O)[C@H](CO)NC3=O)NC(=O)[C@H](CCCCN)NC(=O)[C@H](CC(=O)O)NC(=O)[C@H](Cc2cccc3ccccc23)NC(=O)[C@H](CC(=O)O)NC(=O)[C@@H]2CCCN2C1=O [compound 427] (H-DCLGAMRKCIPD[1Nal]DKCCRPNLVCSRTHKWCKYVF-NH2; disulfide 2-17, 9-23, 16-30) | 1180 nM | 650 nM | > 5000 nM
8 | CC[C@H](C)[C@@H]1NC(=O)[C@@H]2CSSC[C@@H]3NC(=O)[C@H](C(C)C)NC(=O)[C@H](CC(C)C)NC(=O)[C@H](CC(N)=O)NC(=O)[C@@H]4CCCN4C(=O)[C@H](CCCNC(=N)N)NC(=O)[C@H](CSSC[C@H](NC(=O)[C@@H](N)CC(=O)O)C(=O)N[C@@H](CC(C)C)C(=O)NCC(=O)N[C@@H](C)C(=O)N[C@@H](CCSC)C(=O)N[C@@H](CCCNC(=N)N)C(=O)N[C@@H](CCCCN)C(=O)N2)NC(=O)[C@H](CSSC[C@@H](C(=O)N[C@@H](CCCCN)C(=O)N[C@@H](Cc2ccc(O)cc2)C(=O)N[C@H](C(=O)N[C@@H](Cc2ccccc2)C(N)=O)C(C)C)NC(=O)[C@H](Cc2c[nH]c4ccccc24)NC(=O)[C@H](CCCCN)NC(=O)[C@H](Cc2c[nH]cn2)NC(=O)[C@H]([C@@H](C)O)NC(=O)[C@H](CCCNC(=N)N)NC(=O)[C@H](CO)NC3=O)NC(=O)[C@H](CCCCN)NC(=O)[C@H](CC(=O)O)NC(=O)[C@H](Cc2c[nH]c3ccccc23)NC(=O)[C@H](CC(=O)O)NC(=O)[C@@H]2CCCN2C1=O [compound 428] (H-DCLGAMRKCIPDWDKCCRPNLVCSRTHKWCKYVF-NH2; disulfide 2-17, 9-23, 16-30) | 1100 nM | 670 nM | > 5000 nM
